Laboratory results taken from PubChem BioAssay (NCI).
Several values for one entry are separate records, joined by “and”; a condition that tells them apart may be missing. Equal values may be shown once.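 All cell lines were grown in 96-well plates and treated with compound for 48 hours. GI50 marks 50% less growth. TGI is the concentration that stops growth completely.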

What was measured:
Assay in all cases: NCI-60 cell line screen, 48 h
A498 renal = system: A498 renal
ACHN renal = system: ACHN renal
BT-549 breast = system: BT-549 breast
EKVX NSCLC = system: EKVX NSCLC
HCC-2998 colon = system: HCC-2998 colon
HCT-15 colon = system: HCT-15 colon
HOP-92 NSCLC = system: HOP-92 NSCLC
HS 578T breast = system: HS 578T breast
HT29 colon = system: HT29 colon
LOX IMVI melanoma = system: LOX IMVI melanoma
MCF7 breast = system: MCF7 breast
MDA-MB-231 breast = system: MDA-MB-231 breast
NCI-H23 lung = system: NCI-H23 lung
NCI/ADR-RES ovarian = system: NCI/ADR-RES ovarian
OVCAR-5 ovarian = system: OVCAR-5 ovarian
PC-3 prostate = system: PC-3 prostate
RPMI-8226 leukemia = system: RPMI-8226 leukemia
SF-268 CNS = system: SF-268 CNS
SN12C renal = system: SN12C renal

| SMILES | TGI (A498 renal) | TGI (ACHN renal) | TGI (BT-549 breast) | TGI (EKVX NSCLC) | TGI (HCC-2998 colon) | TGI (HCT-15 colon) | TGI (HOP-92 NSCLC) | TGI (HS 578T breast) | TGI (HT29 colon) | TGI (LOX IMVI melanoma) | TGI (MCF7 breast) | TGI (MDA-MB-231 breast) | TGI (NCI-H23 lung) | TGI (NCI/ADR-RES ovarian) | TGI (OVCAR-5 ovarian) | TGI (PC-3 prostate) | TGI (RPMI-8226 leukemia) | TGI (SF-268 CNS) | TGI (SN12C renal) | GI50 (HOP-92 NSCLC) |
| --- | --- | --- | --- | --- | --- | --- | --- | --- | --- | --- | --- | --- | --- | --- | --- | --- | --- | --- | --- | --- |
| COC(=O)/C=C1/OC(c2ccc(C)cc2)=C(Cl)C1=O | 33.6 µM | 30.4 µM | 42.2 µM | 42.3 µM | 34.4 µM | 26.4 µM | 34.1 µM | 68.9 µM | 32.6 µM | 23.7 µM | 34.9 µM | 33.6 µM | 36.9 µM | 56.1 µM | 35 µM | 27.7 µM | 14.4 µM | 41.6 µM | 38 µM | – |
| COc1cccc(Nc2nc(N)nc(N)c2N=O)c1 | 47.7 µM | 89 µM | 96.8 µM | > 100 µM | 34.4 µM | 47 µM | 40 µM | 82.4 µM | 75.3 µM | 32.6 µM | > 100 µM | > 100 µM | 31.5 µM | 52.5 µM | > 100 µM | > 100 µM | 60.6 µM | > 100 µM | > 100 µM | – |
| CC(C)NC(=O)OCc1c(COC(=O)NC(C)C)c(-c2ccc[n+](COC(=O)C(C)(C)C)c2)n2c1CCC2 | > 91.9 µM | > 100 µM | > 100 µM | > 100 µM | > 100 µM | > 100 µM | > 100 µM | > 100 µM | > 100 µM | > 100 µM | > 100 µM | > 100 µM | > 100 µM | > 100 µM | > 100 µM | > 100 µM | > 100 µM | > 100 µM | > 100 µM | – |
| Cc1ccc(/C=N/NS(=O)(=O)c2ccc(/C=C3\NC(=O)NC3=O)cc2)cc1 | > 100 µM | > 100 µM | > 100 µM | > 100 µM | > 100 µM | > 100 µM | > 100 µM | 81.6 µM | > 100 µM | > 100 µM | > 100 µM | > 100 µM | > 100 µM | > 100 µM | > 100 µM | > 100 µM | > 100 µM | 57.7 µM | > 100 µM | – |
| CN(C)CCCN1c2ccccc2CCc2cc([N+](=O)[O-])ccc21 | 61.4 µM and 25.8 µM | 90.4 µM and 30 µM | 45 µM and 31.3 µM | > 100 µM and 37.4 µM | 34.1 µM and 25.2 µM | 83.3 µM and 37.4 µM | 58.1 µM and 22.6 µM | 71.9 µM and 34.3 µM | 41.6 µM and 32.8 µM | 37.2 µM and 28.2 µM | 79 µM and 31.8 µM | 52.7 µM and 30.2 µM | 54.1 µM and 36.7 µM | 82 µM and 39.8 µM | 63.9 µM and 31.8 µM | 76.8 µM and 34.3 µM | 52.6 µM and 41.2 µM | 52.5 µM and 28.8 µM | 60.9 µM and 30.4 µM | 21.8 µM and 7.69 µM |
| CCOC(=O)c1cc(C#N)[nH]c1-c1ccsc1 | > 100 µM | > 100 µM | > 100 µM | 84 µM | > 100 µM | > 100 µM | > 100 µM | 55.8 µM | 95.1 µM | > 100 µM | > 100 µM | > 100 µM | > 100 µM | 94.9 µM | > 100 µM | 70.4 µM | 65.6 µM | 57.1 µM | > 100 µM | – |
| O=c1/c(=C/c2ccc([N+](=O)[O-])o2)sc2n1[C@@H](c1ccc3c(c1)OCO3)C=C(c1cc(F)c(Cl)cc1Cl)N=2 | > 100 µM | 33.2 µM | 35.1 µM | 32.7 µM | 28.7 µM | 64.9 µM | 26.6 µM | > 100 µM | 46 µM | 42.9 µM | 32.4 µM | 50.4 µM | 46.8 µM | > 100 µM | 43.8 µM | > 100 µM | > 100 µM | > 100 µM | 56.7 µM | – |
| O=S(=O)(O)C(Cc1nc2ccccc2[nH]1)S(=O)(=O)OCCC1S(=O)(=O)OCCOS1(=O)=O (configuration not stated) | > 100 µM | > 100 µM | > 100 µM | > 100 µM | > 100 µM | > 100 µM | > 100 µM | > 100 µM | > 100 µM | > 100 µM | > 100 µM | > 100 µM | > 100 µM | > 100 µM | > 100 µM | > 100 µM | > 100 µM | > 100 µM | > 100 µM | – |
| CC(C)N1[C@@H]2CCCC[C@H]2N(C(C)C)P1(=O)C(=O)/C=C/c1ccccc1 | 16.9 µM | 8.62 µM | 14.5 µM | 13.8 µM | 5.33 µM | 4.14 µM | 6.53 µM | 4.94 µM | 8.03 µM | 4.55 µM | 59.9 µM | 8.74 µM | 6.42 µM | 4.81 µM | 6.66 µM | 15.2 µM | 9.32 µM | 7.33 µM | 3.96 µM | – |
| Cn1c(=O)c2c(nc3n(C)c(=O)c4ccccc4n23)n(C)c1=O | > 63.6 µM | 66.7 µM | > 100 µM | > 100 µM | > 100 µM | > 100 µM | > 100 µM | > 100 µM | > 100 µM | > 100 µM | > 100 µM | > 100 µM | > 100 µM | > 100 µM | > 100 µM | > 100 µM | > 76.7 µM | > 100 µM | > 100 µM | – |
| O=c1[nH]c2cc([N+](=O)[O-])ccc2nc1/C=C(\O)c1ccc(Cl)cc1 | 39.6 µM | 31.4 µM | 19.1 µM | 35.5 µM | 72.3 µM | 28.4 µM | 36.6 µM | 44.8 µM | 32.7 µM | 25.4 µM | 26.2 µM | 24.7 µM | 29.4 µM | 28.4 µM | 46 µM | 32.5 µM | 65.2 µM | 53.8 µM | – | – |
| Cc1ccc(S(=O)(=O)Nn2c(O)c(C#N)c(-c3ccc(N(C)C)cc3)c(C#N)c2=O)cc1 | > 50 µM | > 50 µM | > 50 µM | > 50 µM | > 50 µM | > 50 µM | > 50 µM | > 50 µM | > 50 µM | > 50 µM | > 50 µM | > 50 µM | – | > 50 µM | > 50 µM | > 50 µM | 43.4 µM | > 50 µM | > 50 µM | – |
